Experimental data: patent publication EP2587940B1, “PARTICLES COMPRISING HYDROPHOBIC POLYMER AND HYDROPHOBIC PHENOLIC COMPOUND” (Unilever N.V., priority 2010, dated 2012)

Tests used:
[1] = system: acetylated LDL metabolism; conditions: Whitman S.C. et al. 2005; cited from earlier work
[2] = Photostability under UV irradiation; type: physicochemical; conditions: UV irradiation 302 nm
Excerpt: (§1) Enhanced stability of colloidal dispersion of curcumin-zein to various pH and UV irradiation was studied as follows.

[3] = Water dispersibility, USP 2 dissolution test; type: physicochemical; conditions: deionised water with 0.05% Tween 80
Procedure: The aim of the experiment is to see how well formulated curcumin disperses in aqueous media. […] Curcumin determined included both free as well as complexed or encapsulated curcumin. […] Samples were withdrawn at specified time interval (5, 15, 30, 60, 90, 120 and 180 mins) and analysed using UV-vis spectroscopic method.

[4] = Stability in simulated gastro-intestinal conditions (dissolution test, gastric and intestinal phase); type: physicochemical; conditions: gastric phase pH 2 with pepsin in first 2 hours
Procedure: To study the stability of the colloidal dispersion of particles according to the invention in simulated gastro-intestinal conditions, a dissolution test was carried out in simulated gastric and intestinal phases using following conditions. This test indicates whether the particles are suitable to be used as a delivery system for phenolic compounds to the human body. Zein-curcumin particles (5:1 wt/wt) were used. • For gastric phase: Water with 0.05% Tween , pH 2 in first 2 hours with pepsin • For intestinal phase: pH adjusted to 6.8 and bile salts and pancreatin added to the medium. • Sampling point: (5, 15, 30, 60, 90, 120 and 180 mins).

[5] = pH stability in buffers; type: physicochemical; conditions: for non-degraded: after 6 hours, 20 microgram per mL curcumin
Excerpt: as §1

Structure (SMILES): COc1ccc(-c2cc(=O)c3c(OC)c(OC)c(OC)c(OC)c3o2)cc1OC [nobiletin]
- inhibited acetylated LDL metabolism [1]: 50-72%

Structure (SMILES): COc1cc(/C=C/C(=O)CC(=O)/C=C/c2ccc(O)c(OC)c2)ccc1O [pure curcumin, Curcumin]
- unchanged curcumin level ([2]; 0 min): 100%
- unchanged curcumin level ([2]; 5 min): 93.6%
- unchanged curcumin level ([2]; 10 min): 88.4%
- unchanged curcumin level ([2]; 15 min): 66.7%
- unchanged curcumin level ([2]; 30 min): 59.6%
- cumulative release ([3]; 0 min): 0%
- cumulative release ([3]; 15 min): 18.1 ± 1.3%
- cumulative release ([3]; 30 min): 19.1 ± 1.4%
- cumulative release ([3]; 60 min): 22.6 ± 1.7%
- cumulative release ([3]; 90 min): 25.7 ± 1.9%
- cumulative release ([3]; 120 min): 27.8 ± 2.0%
- cumulative release ([3]; 180 min): 32.8 ± 2.7%
- release ([4]; 0 min, then intestinal phase pH 6.8 with bile salts and pancreatin): 0%
- release ([4]; 5 min, then intestinal phase pH 6.8): 18.0 ± 2.0%
- release ([4]; 15 min, then intestinal phase pH 6.8): 18.3 ± 0.3%
- release ([4]; 30 min, then intestinal phase pH 6.8): 20.9 ± 2.2%
- release ([4]; 60 min, then intestinal phase pH 6.8): 21.7 ± 1.9%
- release ([4]; 90 min, then intestinal phase pH 6.8): 38.1 ± 0.5%
- release ([4]; 120 min, then intestinal phase pH 6.8): 36.9 ± 1.4%
- release ([4]; 150 min, then intestinal phase pH 6.8): 37.6 ± 2.3%
- release ([4]; 180 min, then intestinal phase pH 6.8): 37.0 ± 1.2%
- non-degraded ([5]; pH 1.2): 56.0%
- non-degraded ([5]; pH 4.5): 69.7%
- non-degraded ([5]; pH 6.7): 67.6%
- non-degraded ([5]; pH 7.4): 66.6%
- colour ([5]; pH 9.0): turned red in colour
- non-degraded ([5]; pH 9.0): 52.9%
